The values below come from patent US20040208944A1, “Compositions and methods against inflammatory processes” (priority 2002, published 2004).

The structures appear in SMILES notation.

One test addresses COX-1 (Homo sapiens, UniProt P23219). Description: Stressgen StressXpress cyclooxygenase activity kit, COX-1. Format: biochemical. The following applies: for COX-1 activity (RLU): vehicle 4115 RLU. The protocol: (§1) The Stressgen StressXpress™ cyclooxygenases activity Kit provides a method to measure specifically cyclooxygenases COX-1 and COX-2 in a variety of biological fluids. The kit uses a specific chemiluminescent substrate (aromatic hydrocarbon molecule) to detect the peroxidative activity of COX enzymes. […] Light emission begins immediately and chemiluminescent signal (Relative Luminescence Units—RLU—is measured after 30 minutes (luminometer Tecan). The amount of light emitted is directly proportional to the COX activity.

In the next test the test system is HT 29 cells. Description: PGE2 synthesis in HT29 cells treated with α-CH2-γ-butyrolactone with and without TNF-α. The class given is cell-based, human. The settings on record: for pg PGE2/ml of medium + TNF-α / PGE2 % of control − TNF-α / pg PGE2/ml of medium − TNF-α: 21 h; for pg PGE2/ml of medium + TNF-α / PGE2 % of control + TNF-α: TNF-α 10 ng/ml for 6 h; for PGE2 % of control − TNF-α / pg PGE2/ml of medium − TNF-α: without TNF-α; for PGE2 % of control + TNF-α: relative to methanol control without TNF-α (control + TNF-α = 730). The protocol: To this end, cells were cultured and passed in Mc Coy's 5A medium supplemented with arachidonic acid ([…]) and bovine serum albumin (0.01%). Cells were treated by alpha-methylen-gamma-butyrolactone (dissolved in methanol) at the following doses: 15, 30, 60 microM or by solvent alone during 21 h including or not stimulation with TNF-alpha (10 ng/ml) for 6 h. PGE2 analysis was performed using an Elisa test on a medium sample.

In the next test the target is T1, COX-2 (Homo sapiens, UniProt P35354).
T1 sequence (P35354 18-604): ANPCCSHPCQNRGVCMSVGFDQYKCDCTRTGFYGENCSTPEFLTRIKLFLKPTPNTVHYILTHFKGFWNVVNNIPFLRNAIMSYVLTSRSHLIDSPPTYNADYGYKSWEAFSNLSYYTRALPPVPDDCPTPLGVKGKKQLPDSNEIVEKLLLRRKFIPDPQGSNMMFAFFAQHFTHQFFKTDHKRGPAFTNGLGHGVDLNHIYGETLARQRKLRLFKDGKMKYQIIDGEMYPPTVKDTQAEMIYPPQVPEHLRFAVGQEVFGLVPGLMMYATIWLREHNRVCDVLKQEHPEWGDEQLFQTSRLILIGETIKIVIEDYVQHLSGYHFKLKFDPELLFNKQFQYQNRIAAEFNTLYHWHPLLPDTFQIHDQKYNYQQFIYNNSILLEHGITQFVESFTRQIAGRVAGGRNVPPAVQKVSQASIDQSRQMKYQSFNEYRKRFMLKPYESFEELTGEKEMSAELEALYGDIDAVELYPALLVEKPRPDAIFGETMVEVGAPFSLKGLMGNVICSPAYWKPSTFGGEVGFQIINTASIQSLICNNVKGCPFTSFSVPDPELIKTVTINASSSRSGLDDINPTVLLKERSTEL
Description: Stressgen StressXpress cyclooxygenase activity kit, COX-2. The class given is biochemical. The protocol: as §1

Test [1] deals with COX-2 expression in HT29 cells. The test is described as follows: Western blot of COX-2 expression in HT 29 cells. The class given is cell-based, human. The settings on record: FIG. 1. The protocol: Western blot analysis: cells lysate were prepared by treating HT 29 cells (treated as above for PGE-2 determinations, i.e. in presence or absence of TNF-alpha and with or without α-CH2-γ-butyrolactone) with lysis buffer (150 mM NaCl, 10 mM Tris HCl pH 8, 1% Tween 20, EDTA pH 8 1 mM, proteases inhibitors, PEFA, (Merck), DETC (Aldrich)). Lysates were sonicated for 5 s, and centrifugated at 10000 g for 5 min. Proteins concentration were estimated by the Bradford method which was standardized using bovine serum albumine.
Whole cell extracts (25 μg) were boiled in Laemmli sample buffer and resolved by SDS-PAGE on 10% gel using the discontinuous polyacrylamide gel system. Non specific binding sites were blocked by incubating the membrane in 5% dried milk phosphate buffered saline solution containing 0.1% of tween-20 overnight at 4° C. Blots were hybridized in a 1:1000 dilution of a goat polyclonal anti COX-2 and also COX-1 antibody (C-20, Santa Cruz Biotechnology) in 5% milk PBS for 1 h at room temperature followed by 1 h of washing in 1% milk PBS. Subsequently, blots were probed with a secondary donkey anti-goat antibody horseradish peroxidase conjugated. After washing for 1 h, the complex was detected using ECL Western blotting reagents (Amersham)
A general note: Immunoblotting shows a protein as a band on a membrane.

Sequence of COX-1 (P23219 24-599): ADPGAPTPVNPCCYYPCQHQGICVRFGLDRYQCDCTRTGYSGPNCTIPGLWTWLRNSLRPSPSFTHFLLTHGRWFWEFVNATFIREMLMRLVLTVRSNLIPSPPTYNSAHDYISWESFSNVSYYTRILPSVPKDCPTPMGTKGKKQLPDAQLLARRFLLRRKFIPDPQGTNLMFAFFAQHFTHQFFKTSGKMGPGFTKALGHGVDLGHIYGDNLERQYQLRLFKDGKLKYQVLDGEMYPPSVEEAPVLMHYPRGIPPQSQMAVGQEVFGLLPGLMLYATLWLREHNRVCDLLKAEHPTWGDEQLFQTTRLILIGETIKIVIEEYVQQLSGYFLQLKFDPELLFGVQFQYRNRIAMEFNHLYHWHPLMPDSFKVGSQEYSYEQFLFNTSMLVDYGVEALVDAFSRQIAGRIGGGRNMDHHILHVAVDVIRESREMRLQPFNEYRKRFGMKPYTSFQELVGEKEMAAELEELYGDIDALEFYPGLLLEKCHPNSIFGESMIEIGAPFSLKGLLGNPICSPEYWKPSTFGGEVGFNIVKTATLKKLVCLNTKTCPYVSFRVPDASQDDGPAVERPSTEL

Turning to `CS(=O)(=O)Nc1ccc([N+](=O)[O-])cc1OC1CCCCC1` [NS-398, reference compound], on COX-1 (1 mM), the “COX-1 activity % of control” value is 99 % of control and the “COX-1 activity (RLU)” value is 4063 RLU.
Turning to `C=C1CCOC1=O` [α-CH2-γ-butyrolactone, α-methylene-γ-butyrolactone], in the test with HT 29 cells (15 μM), the “pg PGE2/ml of medium + TNF-α” value was determined as 13286 pg/mL, the “PGE2 % of control − TNF-α” value is 108 % of control, the “pg PGE2/ml of medium − TNF-α” value came out at 2814 pg/mL and the “PGE2 % of control + TNF-α” value is listed as 512 % of control. Also, in the test on HT 29 cells (30 μM), the “pg PGE2/ml of medium + TNF-α” value is 9349 pg/mL, the “PGE2 % of control − TNF-α” value is on record as 76 % of control, the “pg PGE2/ml of medium − TNF-α” value was 1970 pg/mL and the “PGE2 % of control + TNF-α” value is on record as 360 % of control. Further, in the test with HT 29 cells (60 μM), the “pg PGE2/ml of medium + TNF-α” value stood at 1310 pg/mL, the “PGE2 % of control − TNF-α” value is recorded as 14 % of control, the “pg PGE2/ml of medium − TNF-α” value turned out to be 1144 pg/mL and the “PGE2 % of control + TNF-α” value is recorded as 50 % of control. Further, on COX-1 (40 μM), the “COX-1 activity % of control” value was 117 % of control and the “COX-1 activity (RLU)” value is listed as 4807 RLU. For the same compound, at COX-2 (40 μM), the “COX-2 activity % of control” value is 49 % of control. Also, on COX-2 (40 μM, vehicle 26450 RLU), the “COX-2 activity (RLU)” value came out at 12823 RLU. For the same compound, on COX-2 (cyclooxygenase activity kit), the “inhibition of COX-2 activity (in words)” value is “inhibit specifically and with high potency COX-2 activity”. Further, the “COX-2 expression (Western blot, in words)” value in test [1] is given as “inhibition of COX-2 expression”.
